target: T1, Sodium/iodide cotransporter (Rattus norvegicus, UniProt Q63008); test: Inhibition of sodium iodide symporter in rat FRTL5 cells assessed as inhibition of iodide uptake using NaI/Na125I after 45 mins by scintillation counting method; format: cell-based, FRTL-5; conditions: not given
T1 sequence (Q63008 whole entry): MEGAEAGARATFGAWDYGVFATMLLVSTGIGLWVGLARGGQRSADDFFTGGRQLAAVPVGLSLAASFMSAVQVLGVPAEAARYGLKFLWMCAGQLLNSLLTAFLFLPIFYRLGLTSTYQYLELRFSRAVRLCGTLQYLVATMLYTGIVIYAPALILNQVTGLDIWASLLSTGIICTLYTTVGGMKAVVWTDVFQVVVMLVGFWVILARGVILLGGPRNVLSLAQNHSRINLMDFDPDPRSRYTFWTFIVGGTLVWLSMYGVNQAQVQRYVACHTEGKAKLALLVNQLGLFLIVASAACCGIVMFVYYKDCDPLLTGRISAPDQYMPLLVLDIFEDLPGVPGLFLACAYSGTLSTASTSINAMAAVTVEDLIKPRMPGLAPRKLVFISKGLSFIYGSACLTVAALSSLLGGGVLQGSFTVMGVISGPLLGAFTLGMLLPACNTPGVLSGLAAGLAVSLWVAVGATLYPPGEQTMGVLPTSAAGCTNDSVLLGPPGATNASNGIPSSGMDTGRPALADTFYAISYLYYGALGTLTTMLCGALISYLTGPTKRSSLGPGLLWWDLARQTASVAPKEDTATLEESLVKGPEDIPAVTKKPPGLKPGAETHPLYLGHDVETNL

Row | Compound | IC50 [nM]
1 | F[B-](F)(F)c1ccc(OCc2ccccc2)cc1 | 400

target: T1, Sodium/iodide cotransporter; test: Inhibition of sodium iodide symporter in rat FRTL5 cells assessed as inhibition of iodide uptake using Na125I after 60 mins by scintillation counting method; format: cell-based, FRTL-5; conditions: not given

Row | Compound | IC50 [nM]
2 | COc1ccc(COC(=O)C2=C(C)NC(=O)NC2c2ccccc2)cc1 (centres undefined) | 400

test system: not listed separately; test: Cytotoxicity against rat FRTL5 cells assessed as effect on cell growth at 1 uM measured at 24 hrs by MTT assay; format: cell-based; conditions: frtl-5, 24 h

Row | Compound | Activity
3 | CC1=C(C(=O)OCc2ccc3c(c2)OCO3)C(c2ccccc2)NC(=O)N1 (centres undefined) | Non-Toxic
4 | COc1ccc(COC(=O)C2=C(C)NC(=O)NC2c2ccc(F)cc2)cc1 (centres undefined) | Non-Toxic
5 | COc1ccc(COC(=O)C2=C(C)NC(=O)NC2c2cccc(Br)c2)cc1 (centres undefined) | Non-Toxic
6 | COc1ccc(COC(=O)C2=C(C)NC(=O)NC2c2ccccc2F)cc1 (centres undefined) | Non-Toxic
7 | COc1ccc(COC(=O)C2=C(C)N(C)C(=O)N(C)C2c2ccco2)cc1OC (centres undefined) | Non-Toxic
8 | CC1=C(C(=O)OCc2ccc3c(c2)OCO3)C(c2ccco2)NC(=O)N1 (centres undefined) | Non-Toxic
9 | CC1=C(C(=O)OCc2ccc3c(c2)OCO3)C(c2ccco2)NC(=O)N1C (centres undefined) | Non-Toxic
10 | CC1=C(C(=O)OCc2ccc3c(c2)OCO3)C(c2ccco2)N(C)C(=O)N1C (centres undefined) | Non-Toxic
11 | COc1ccc(COC(=O)C2=C(C)NC(=O)NC2c2ccco2)cc1 (centres undefined) | Non-Toxic
12 | COc1ccc(COC(=O)C2=C(C)N(C)C(=O)NC2c2ccco2)cc1 (centres undefined) | Non-Toxic
13 | COc1ccc(COC(=O)C2=C(C)N(C)C(=O)N(C)C2c2ccco2)cc1 (centres undefined) | Non-Toxic
14 | COc1cccc(COC(=O)C2=C(C)NC(=O)NC2c2ccco2)c1 (centres undefined) | Non-Toxic
15 | COc1cccc(COC(=O)C2=C(C)N(C)C(=O)NC2c2ccco2)c1 (centres undefined) | Non-Toxic
16 | COc1cccc(COC(=O)C2=C(C)N(C)C(=O)N(C)C2c2ccco2)c1 (centres undefined) | Non-Toxic
17 | CC1=C(C(=O)OCc2ccccc2)C(c2ccccc2)NC(=O)N1 (centres undefined) | Non-Toxic
18 | COc1ccc(COC(=O)C2=C(CC(C)C)NC(=O)NC2c2ccccc2)cc1 (centres undefined) | Non-Toxic
19 | COc1ccc(COC(=O)C2=C(Cc3cccs3)NC(=O)NC2c2ccccc2)cc1 (centres undefined) | Non-Toxic
20 | CCCCCC1=C(C(=O)OCc2ccc(OC)cc2)C(c2ccccc2)NC(=O)N1 (centres undefined) | Non-Toxic
21 | COc1ccc(COC(=O)C2=C(C)N(C)C(=O)NC2c2ccccc2)cc1 (centres undefined) | Non-Toxic
22 | CC1=C(C(=O)OCc2ccc3c(c2)OCO3)C(c2ccoc2)NC(=O)N1 (centres undefined) | Non-Toxic
23 | COc1ccc(COC(=O)C2=C(Cc3ccccc3)NC(=O)NC2c2ccccc2)cc1 (centres undefined) | Non-Toxic

Row | Compound | Activity
24 | COc1ccc(COC(=O)C2=C(C)NC(=O)NC2c2ccc(C)o2)cc1 (centres undefined) | Non-Toxic
25 | COc1ccc(COC(=O)C2=C(C)NC(=O)NC2c2ccoc2)cc1 (centres undefined) | Non-Toxic
26 | CC1=C(C(=O)OCc2ccccc2C)C(c2ccccc2)NC(=O)N1 (centres undefined) | Non-Toxic
27 | COc1ccc(COC(=O)C2=C(COc3ccccc3)NC(=O)NC2c2ccccc2)cc1 (centres undefined) | Non-Toxic
28 | COc1cccc(COC(=O)C2=C(C)NC(=O)NC2c2ccccc2)c1 (centres undefined) | Non-Toxic
29 | COc1ccc(COC(=O)C2=C(C)NC(=O)NC2c2cccc(F)c2)cc1 (centres undefined) | Non-Toxic
30 | CC1=C(C(=O)OCc2ccccc2Cl)C(c2ccccc2)NC(=O)N1 (centres undefined) | Non-Toxic
31 | COc1ccc(COC(=O)C2=C(CNC(=O)c3ccccc3)NC(=O)NC2c2ccccc2)cc1 (centres undefined) | Non-Toxic
32 | COc1ccc(COC(=O)C2=C(c3cccs3)NC(=O)NC2c2ccccc2)cc1 (centres undefined) | Non-Toxic
33 | COc1ccc(COC(=O)C2=C(C)NC(=O)NC2c2ccsc2)cc1 (centres undefined) | Non-Toxic
34 | CCC1=C(C(=O)OCc2ccc(OC)cc2)C(c2ccccc2)NC(=O)N1 (centres undefined) | Non-Toxic
35 | COc1ccc(COC(=O)C2=C(C)N(C)C(=O)N(C)C2c2ccccc2)cc1 (centres undefined) | Non-Toxic
36 | COc1ccc(COC(=O)C2=C(C)NC(=S)NC2c2ccccc2)cc1 (centres undefined) | Non-Toxic
37 | COc1ccc(COC(=O)C2=C(C)NC(=O)NC2c2cccs2)cc1 (centres undefined) | Non-Toxic
38 | CC1=C(C(=O)OCc2ccc(Cl)cc2)C(c2ccccc2)NC(=O)N1 (centres undefined) | Non-Toxic
39 | CC1=C(C(=O)OCc2ccc(F)cc2)C(c2ccccc2)NC(=O)N1 (centres undefined) | Non-Toxic
40 | COc1ccc(COC(=O)C2=C(C3CCCCC3)NC(=O)NC2c2ccccc2)cc1 (centres undefined) | Non-Toxic
41 | COc1ccc(COC(=O)C2=C(C)NC(=O)NC2C2CC2)cc1 (centres undefined) | Non-Toxic
42 | COc1ccc(COC(=O)C2=C(C)NC(=O)NC2c2cccc(Cl)c2)cc1 (centres undefined) | Non-Toxic
43 | COc1ccc(COC(=O)C2=C(c3ccccc3)NC(=O)NC2c2ccccc2)cc1 (centres undefined) | Non-Toxic
44 | CC1=C(C(=O)NCc2ccc3c(c2)OCO3)C(c2ccccc2)NC(=O)N1 (centres undefined) | Non-Toxic
